Experimental data: patent publication US20120148685A1, “METHODS AND COMPOSITIONS FOR TREATING INSULIN RESISTANCE, DIABETES MELLITUS TYPE 2, METABOLIC SYNDROME AND RELATED DISORDERS” (Engergy4Life AG, priority 2009, published 2012)
Marks after values point to notes of the source that are not given here.

Experiments:
[1] = Feed intake, body weight development and feed conversion ratio of Zucker rats fed supplemented diets; assay type: in vivo; conditions: for Daily body weight gain / Feed conversion ratio / Feed intake / Final body weight / Total body weight gain: obese (fa/fa) Zucker rats, supplemented diet fed 4 wk, means ± SD (n = 12)
From the text: Zucker rats are an established model of human early-onset, hyperplastic-hypertrophic obesity and insulin resistance as well as human non-insulin dependent diabetes mellitus.
(§1) A total of 60 male, 8-10 week old, obese (fa/fa) Zucker rats (Crl:ZUC-Leprfa; Charles River, France) with an initial body weight of 358±24 (mean±SD) g were randomly assigned to five groups of twelve rats each. In addition, 12 male, 8-10 week old, heterozygous lean (fa/+) Zucker rats with an initial body weight of 271±10 g were used as a lean control group. All rats were kept individually in Macrolon cages in a room maintained at 22±1° C. and 50-60% relative humidity with lighting from 06.00 to 18.00 hours. All experimental procedures described followed established guidelines for the care and handling of laboratory animals and were approved by the local Animal Care and Use Committee.
(§2) The rats were fed semi-purified diets which were composed according to the recommendations of the American Institute of Nutrition (AIN)-93G. Five different diets were used differing in their supplementation. […] Diets were prepared by mixing the dry components and subsequent pelleting with a standard pelleting device (Kahl Laborpressanlage Typ 14-175; Reinbek, Germany). Feed was administered ad libitum, and feed intake was recorded weekly. Experimental diets were fed for 4 weeks. Water was available ad libitum from nipple drinkers during the whole experiment.

[2] = Organ weights of the rats; assay type: in vivo; conditions: obese (fa/fa) Zucker rats, supplemented diet fed 4 wk, means ± SD (n = 12)
Description: (§3) All rats were kept individually in Macrolon cages in a room maintained at 22±1° C. and 50-60% relative humidity with lighting from 06.00 to 18.00 hours. All experimental procedures described followed established guidelines for the care and handling of laboratory animals and were approved by the local Animal Care and Use Committee.
(§4) Five different diets were used differing in their supplementation. […] Feed was administered ad libitum, and feed intake was recorded weekly. Experimental diets were fed for 4 weeks. Water was available ad libitum from nipple drinkers during the whole experiment.

[3] = Plasma and lipoprotein lipid concentrations (triacylglycerol, cholesterol; enzymatic kits); assay type: in vivo, Zucker rats; conditions: for Cholesterol, HDL / Cholesterol, Plasma / Cholesterol, VLDL + LDL / Triacylglycerols, Plasma / Triacylglycerols, VLDL + LDL: obese (fa/fa) Zucker rats, supplemented diet 4 wk, fasted, means ± SD (n = 12)
Description: as §1, §2
(§5) The rats were decapitated under CO2 anesthesia in the fasted state. Whole blood was collected into EDTA polyethylene tubes (Sarstedt, Nürnbrecht, Germany). Plasma was separated from whole blood by centrifugation (1,100×g; 10 min) at 4° C. Lipoproteins [VLDL, LDL and high-density lipoproteins (HDL)] were separated by step-wise ultracentrifugation (900,000×g, 1.5 h, 4° C.; Mikro-Ultrazentrifuge, Sorvall Products, Bad Homburg, Germany). All samples were stored at −20° C. pending analysis.
Triacylglycerol and cholesterol concentrations in plasma and lipoproteins were determined using enzymatic reagent kits from Biocon (Vöhl-Marienhagen, Germany).

[4] = Fasting glucose concentration in plasma; assay type: in vivo, Zucker rats; conditions: for Glucose in plasma: obese (fa/fa) Zucker rats, supplemented diet 4 wk, fasted, means ± SD (n = 12)
Description: as §1, §2, §5
Glucose concentration in plasma was determined by an enzymatic reagent kit from Analyticon Biotechnologies (Lichtenfels, Germany).

[5] = Non-esterified fatty acids (NEFA) in plasma; assay type: in vivo, Zucker rats; conditions: for NEFA in plasma: obese (fa/fa) Zucker rats, supplemented diet 4 wk, fasted, means ± SD (n = 12)
Description: as §1, §2, §5
NEFA concentrations in plasma were determined using the NEFA kit from Wako Chemicals (Neuss, Germany).

leptin = experiment: Leptin in plasma (rat ELISA); assay type: in vivo, Zucker rats; conditions: for Leptin in plasma: obese (fa/fa) Zucker rats, supplemented diet 4 wk, fasted, means ± SD (n = 12)
Description: as §1, §2, §5
(§6) Concentrations of leptin in plasma was determined by rat ELISA kits from BioVendor (Heidelberg, Germany). Concentration of high molecular weight adiponectin was determined by a rat ELISA kit from Shibayagi (Ishihara, Shibukawa, Gunma, Japan).

[6] = tested on: high molecular weight adiponectin; experiment: High molecular weight adiponectin in plasma (rat ELISA); assay type: in vivo; conditions: obese (fa/fa) Zucker rats, supplemented diet 4 wk, fasted, means ± SD (n = 12)
Description: as §1, §2, §5, §6

[7] = tested on: sterol regulatory element-binding protein (SREBP)-1c; experiment: Relative mRNA concentration in liver, lipogenesis: SREBP-1c; assay type: in vivo, Zucker rats; conditions: for Relative mRNA concentration, SREBP-1c: liver of obese Zucker rats, diet 4 wk, obese control = 1.00, means ± SD (n = 12)
Description: as §3, §4

[8] = tested on: fatty acid synthase (FAS); experiment: Relative mRNA concentration in liver, lipogenesis: FAS; assay type: in vivo, Zucker rats; conditions: for Relative mRNA concentration, FAS: liver of obese Zucker rats, diet 4 wk, obese control = 1.00, means ± SD (n = 12)
Description: as §3, §4

[9] = tested on: stearoyl-CoA desaturase (SCD); experiment: Relative mRNA concentration in liver, lipogenesis: SCD; assay type: in vivo; conditions: liver of obese Zucker rats, diet 4 wk, obese control = 1.00, means ± SD (n = 12)
Description: as §3, §4

[10] = tested on: fatty acid binding protein (FABP); experiment: Relative mRNA concentration in liver, fatty acid uptake: FABP; assay type: in vivo, Zucker rats; conditions: for Relative mRNA concentration, FABP: liver of obese Zucker rats, diet 4 wk, obese control = 1.00, means ± SD (n = 12)
Description: as §3, §4

[11] = tested on: fatty acid transport protein (FATP); experiment: Relative mRNA concentration in liver, fatty acid uptake: FATP; assay type: in vivo; conditions: liver of obese Zucker rats, diet 4 wk, obese control = 1.00, means ± SD (n = 12)
Description: as §3, §4

scavenger receptor CD36 = experiment: Relative mRNA concentration in liver, fatty acid uptake: CD36; assay type: in vivo; conditions: liver of obese Zucker rats, diet 4 wk, obese control = 1.00, means ± SD (n = 12)
Description: as §3, §4

lipoprotein lipase (LPL) = experiment: Relative mRNA concentration in liver, fatty acid uptake: LPL; assay type: in vivo; conditions: liver of obese Zucker rats, diet 4 wk, obese control = 1.00, means ± SD (n = 12)
Description: as §3, §4

acyl-CoA oxidase (ACO) = experiment: Relative mRNA concentration in liver, fatty acid oxidation: ACO; assay type: in vivo; conditions: liver of obese Zucker rats, diet 4 wk, obese control = 1.00, means ± SD (n = 12)
Description: as §3, §4

[12] = tested on: liver-type carnitine-palmitoyltransferase (L-CPT) I; experiment: Relative mRNA concentration in liver, fatty acid oxidation: L-CPT I; assay type: in vivo; conditions: liver of obese Zucker rats, diet 4 wk, obese control = 1.00, means ± SD (n = 12)
Description: as §3, §4

[13] = within the obese rats, in words, P<0.05 where different
[14] = within the obese rats, in words, P<0.05

C[N+](C)(C)CC(O)CC(=O)[O-] (centres unmarked) [carnitine]
Daily body weight gain [1]: 4.85 ± 0.48 ^a g | Feed conversion ratio [1]: 5.18 ± 0.63 ^bc g/g | Feed intake [1]: 25.1 ± 3.4 ^b g/d | Final body weight [1]: 496 ± 31 ^a g | Total body weight gain [1]: 138 ± 13 ^a g | Daily feed intake compared with the obese control group [1, 13]: did not differ | Feed conversion ratio compared with the obese control group [1, 13]: did not differ much | Absolute organ weights: Heart [2]: 1.36 ± 0.12 g | Absolute organ weights: Kidney [2]: 2.75 ± 0.66 g | Absolute organ weights: Liver [2]: 25.0 ± 2.8 ^a g | Relative organ weights: Heart [2]: 2.73 ± 0.15 ^b mg/g body weight | Relative organ weights: Kidney [2]: 5.52 ± 1.17 mg/g body weight | Relative organ weights: Liver [2]: 50.4 ± 4.4 ^a mg/g body weight | Cholesterol, HDL [3]: 4.64 ± 0.50 ^a mmol/L | Cholesterol, Plasma [3]: 7.68 ± 0.92 ^ab mmol/L | Cholesterol, VLDL + LDL [3]: 3.12 ± 0.39 ^b mmol/L | Triacylglycerols, Plasma [3]: 4.41 ± 0.85 ^c mmol/L | Triacylglycerols, VLDL + LDL [3]: 2.65 ± 0.57 ^b mmol/L | TAG concentration in plasma compared with the niacin+DHA+carnitine group [3, 14]: lower | TAG concentrations in plasma compared with the control group [3, 14]: lower | Cholesterol in the VLDL+LDL fraction compared with the obese control group [3, 13]: did not differ | TAG concentration in the VLDL+LDL fraction compared with the obese control group [3, 13]: did not differ | Glucose in plasma [4]: 7.86 ± 0.75 ^ab mmol/L | Fasting glucose concentration compared with the obese control group [4, 13]: did not differ | NEFA in plasma [5]: 2.41 ± 0.57 ^b mmol/L | NEFA concentrations in plasma compared with the obese control group [5, 14]: lower | Leptin in plasma (leptin): 6.09 ± 1.29 ^bc ng/mL | Leptin concentrations in plasma compared with the obese control group (leptin; [13]): did not differ | Adiponectin in plasma [6]: 122 ± 12 ng/mL | Relative mRNA concentration, SREBP-1c [7]: 0.78 ± 0.31 ^ab | Relative mRNA concentration of SREBP-1c in the liver compared with the obese control group [7, 13]: did not differ | Gene expression of fatty acid synthase ([8]; conclusions, liver of obese diabetic rats, in words): lowered | Relative mRNA concentration, FAS [8]: 0.53 ± 0.49 ^b | Relative mRNA concentration of FAS in the liver compared with the obese control group [8, 13]: lower | Relative mRNA concentration, SCD [9]: 0.99 ± 0.33 ^a | Relative mRNA concentration of FABP in the liver compared with the other groups ([10]; in words, P<0.05 where different): did not differ | Relative mRNA concentration, FABP [10]: 0.83 ± 0.29 ^ab | Relative mRNA concentration, FATP [11]: 0.93 ± 0.76 | Relative mRNA concentration, CD36 (scavenger receptor CD36): 0.87 ± 0.22 ^a | Relative mRNA concentration, LPL (lipoprotein lipase (LPL)): 1.04 ± 0.20 | Relative mRNA concentration, ACO (acyl-CoA oxidase (ACO)): 1.15 ± 0.37 | Relative mRNA concentration, L-CPT I [12]: 1.15 ± 0.41

CC/C=C\C/C=C\C/C=C\C/C=C\C/C=C\C/C=C\CCC(=O)O [DHA, docosahexaenoic acid]
Daily body weight gain [1]: 5.14 ± 0.60 ^a g | Feed conversion ratio [1]: 5.01 ± 0.28 ^c g/g | Feed intake [1]: 25.7 ± 2.9 ^ab g/d | Final body weight [1]: 505 ± 34 ^a g | Total body weight gain [1]: 146 ± 17 ^a g | Absolute organ weights: Heart [2]: 1.36 ± 0.13 g | Absolute organ weights: Kidney [2]: 2.59 ± 0.38 g | Absolute organ weights: Liver [2]: 24.7 ± 3.7 ^a g | Relative organ weights: Heart [2]: 2.70 ± 0.21 ^b mg/g body weight | Relative organ weights: Kidney [2]: 5.16 ± 0.91 mg/g body weight | Relative organ weights: Liver [2]: 48.6 ± 4.9 ^a mg/g body weight | Cholesterol, HDL [3]: 4.51 ± 0.45 ^a mmol/L | Cholesterol, Plasma [3]: 8.30 ± 1.00 ^a mmol/L | Cholesterol, VLDL + LDL [3]: 3.62 ± 0.53 ^a mmol/L | Triacylglycerols, Plasma [3]: 4.73 ± 0.98 ^bc mmol/L | Triacylglycerols, VLDL + LDL [3]: 2.81 ± 0.52 ^b mmol/L | Glucose in plasma [4]: 7.99 ± 0.77 ^ab mmol/L | NEFA in plasma [5]: 2.42 ± 0.53 ^b mmol/L | Leptin in plasma (leptin): 7.27 ± 1.09 ^a ng/mL | Adiponectin in plasma [6]: 120 ± 22 ng/mL | Relative mRNA concentration, SREBP-1c [7]: 0.81 ± 0.32 ^ab | Relative mRNA concentration, FAS [8]: 0.71 ± 0.55 ^ab | Relative mRNA concentration, SCD [9]: 1.01 ± 0.45 ^a | Relative mRNA concentration, FABP [10]: 0.99 ± 0.19 ^a | Relative mRNA concentration, FATP [11]: 1.07 ± 0.90 | Relative mRNA concentration, CD36 (scavenger receptor CD36): 0.91 ± 0.38 ^a | Relative mRNA concentration, LPL (lipoprotein lipase (LPL)): 1.26 ± 0.36 | Relative mRNA concentration, ACO (acyl-CoA oxidase (ACO)): 1.27 ± 0.35 | Relative mRNA concentration, L-CPT I [12]: 1.31 ± 0.69
